Tests used:
Format in all cases: cell-based
[1] = Cell viability assay (MTT) on normal cells; conditions: human, MCF-10A normal mammary gland epithelial cells, 4 days incubation
[2] = test system: U251; experiment: NCI-60 single-dose screen; conditions: Homo sapiens, U-251, single dose 10 µM, '-' = no inhibition, read-out: % Growth Inhibition
Outline: (§1)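 Single concentration (10 μM) per compound, assayed by the NCI DTP against its 60-line panel covering leukemia, lung, colon, CNS, melanoma, ovarian, renal, prostate and breast cancers.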

[3] = test system: OVCAR-4; experiment: NCI-60 single-dose screen; conditions: Homo sapiens, single dose 10 µM, '-' = no inhibition, read-out: % Growth Inhibition
Outline: as §1

[4] = test system: HOP-62; experiment: NCI-60 single-dose screen; conditions: Homo sapiens, single dose 10 µM, '-' = no inhibition, read-out: % Growth Inhibition
Outline: as §1

[5] = test system: HCT-116; experiment: NCI-60 single-dose screen; conditions: Homo sapiens, single dose 10 µM, '-' = no inhibition, read-out: % Growth Inhibition
Outline: as §1

[6] = test system: T-47D; experiment: NCI-60 single-dose screen; conditions: Homo sapiens, T47D, single dose 10 µM, '-' = no inhibition, read-out: % Growth Inhibition
Outline: as §1

[7] = test system: COLO 205; experiment: NCI-60 single-dose screen; conditions: Homo sapiens, single dose 10 µM, '-' = no inhibition, read-out: % Growth Inhibition
Outline: as §1

[8] = test system: OVCAR-5; experiment: NCI-60 single-dose screen; conditions: Homo sapiens, single dose 10 µM, '-' = no inhibition, read-out: % Growth Inhibition
Outline: as §1

[9] = test system: 786-0; experiment: NCI-60 single-dose screen; conditions: Homo sapiens, single dose 10 µM, '-' = no inhibition, read-out: % Growth Inhibition
Outline: as §1

[10] = test system: SK-MEL-5; experiment: NCI-60 single-dose screen; conditions: Homo sapiens, single dose 10 µM, '-' = no inhibition, read-out: % Growth Inhibition
Outline: as §1

[11] = test system: HOP-92; experiment: NCI-60 single-dose screen; conditions: Homo sapiens, single dose 10 µM, '-' = no inhibition, read-out: % Growth Inhibition
Outline: as §1

[12] = test system: A549/ATCC; experiment: NCI-60 single-dose screen; conditions: Homo sapiens, single dose 10 µM, '-' = no inhibition, read-out: % Growth Inhibition
Outline: as §1

[13] = test system: HS 578T; experiment: NCI-60 single-dose screen; conditions: Homo sapiens, single dose 10 µM, '-' = no inhibition, read-out: % Growth Inhibition
Outline: as §1

[14] = test system: Panc-1; experiment: Antiproliferative assay (MTT); conditions: Homo sapiens, Panc-1 (pancreatic), read-out: Antiproliferative activity IC50 ± SEM, Panc-1
Outline: (§2)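 MTT assay on tumour cell lines, compound in 0.1% DMSO final, 96 h at 37 °C. MTT at 0.4 mg/mL for 3 h, then DMSO solubilisation and absorbance at 540 nm. IC50 from dose-response, at least two independent runs in triplicate.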

[15] = test system: MCF-7; experiment: Antiproliferative assay (MTT); conditions: Homo sapiens, MCF7, MCF-7 (breast), read-out: Antiproliferative activity IC50 ± SEM, MCF-7
Outline: as §2

CCCSc1nc(-c2ccc(OC)cc2)cc(-c2cccc(OC)c2)n1 [Compound 18, 6-(3-Methoxyphenyl)-4-(4-methoxyphenyl)-2-(propylthio)pyrimidine]
viability at 4 days, 50 µM [1]: 87%
inhibition at 10 µM [2]: < 0%
inhibition at 10 µM [3]: 3.94%
inhibition at 10 µM [4]: < 0%
inhibition at 10 µM [5]: 3.37%
inhibition at 10 µM [6]: 13.8%
inhibition at 10 µM [7]: 0.86%
inhibition at 10 µM [8]: < 0%
inhibition at 10 µM [9]: < 0%
inhibition at 10 µM [10]: 3.1%
inhibition at 10 µM [11]: < 0%
inhibition at 10 µM [12]: 7.77%
inhibition at 10 µM [13]: < 0%
IC50 [14]: 0.044 ± 0.004 µM
IC50 [15]: 0.046 ± 0.004 µM
